Laboratory results taken from the NIST ThermoML archive (doi:10.1021/je060271a).
Several values for one entry are separate records, joined by “and”; a condition that tells them apart may be missing. Equal values may be shown once.

Conditions: 303.16 K, Liquid, Vibrating tube method

CCCC(=O)OCC(COC(=O)CCC)(COC(=O)CCC)COC(=O)CCC [pentaerythritol tetrabutyrate]
Conditions	mass density
218.9 kPa	1042.3 kg/m3
232.4 kPa	1042.3 kg/m3
246.9 kPa	1042.3 kg/m3
262 kPa	1042.5 kg/m3
324.9 kPa	1042.3 kg/m3
472.3 kPa	1042.4 kg/m3
544.7 kPa	1042.5 kg/m3
563.5 kPa	1042.5 kg/m3
587.1 kPa	1042.5 kg/m3
607.3 kPa	1042.4 kg/m3
629 kPa	1042.6 kg/m3
656.4 kPa	1042.6 kg/m3
678.3 kPa	1042.6 kg/m3
696.6 kPa	1042.6 kg/m3
718.1 kPa	1042.7 kg/m3
737.2 kPa	1042.6 kg/m3
757 kPa	1042.6 kg/m3
776.8 kPa	1042.6 kg/m3
796 kPa	1042.7 kg/m3
818.2 kPa	1042.7 kg/m3
836.3 kPa	1042.7 kg/m3
853.6 kPa	1042.7 kg/m3
873.1 kPa	1042.8 kg/m3
890.5 kPa	1042.7 kg/m3
907.8 kPa	1042.7 kg/m3
929.5 kPa	1042.8 kg/m3
947.9 kPa	1042.7 kg/m3
966.4 kPa	1042.8 kg/m3
985.3 kPa	1042.9 kg/m3
1007.9 kPa	1042.8 kg/m3
1026.6 kPa	1042.8 kg/m3
1044.5 kPa	1042.8 kg/m3
1062.2 kPa	1042.9 kg/m3
1083.2 kPa	1043 kg/m3
1101 kPa	1042.8 kg/m3
1119.2 kPa	1042.9 kg/m3
1141.3 kPa	1042.9 kg/m3
1160.5 kPa	1042.9 kg/m3
1180.3 kPa	1042.9 kg/m3
1203.2 kPa	1042.8 kg/m3
1223.6 kPa	1042.8 kg/m3
1243.7 kPa	1043 kg/m3
1290.1 kPa	1043 kg/m3
1358.8 kPa	1043.1 kg/m3
1379.7 kPa	1043 kg/m3
1401.5 kPa	1043 kg/m3
1428.1 kPa	1043.1 kg/m3
1450.3 kPa	1043.1 kg/m3
1473.3 kPa	1043.1 kg/m3
1501.7 kPa	1043.2 kg/m3
1526.2 kPa	1043.1 kg/m3
1550.9 kPa	1043.1 kg/m3
1583.5 kPa	1043.2 kg/m3
1604.5 kPa	1043.2 kg/m3
1630.2 kPa	1043.2 kg/m3
1662.3 kPa	1043.2 kg/m3
1689.4 kPa	1043.3 kg/m3
1717.5 kPa	1043.3 kg/m3
1751.5 kPa	1043.3 kg/m3
1780.2 kPa	1043.3 kg/m3
1810 kPa	1043.3 kg/m3
1846.1 kPa	1043.4 kg/m3
1877 kPa	1043.3 kg/m3
1908.8 kPa	1043.5 kg/m3
1942.4 kPa	1043.5 kg/m3
1983.9 kPa	1043.5 kg/m3
2011.5 kPa	1043.6 kg/m3
2053.9 kPa	1043.4 kg/m3
2086.5 kPa	1043.6 kg/m3
2109.2 kPa	1043.5 kg/m3
2134.7 kPa	1043.5 kg/m3
2155.2 kPa	1043.4 kg/m3
2176 kPa	1043.6 kg/m3
2200.7 kPa	1043.6 kg/m3
2220.8 kPa	1043.6 kg/m3
2241.1 kPa	1043.6 kg/m3
2266.1 kPa	1043.6 kg/m3
2286.5 kPa	1043.6 kg/m3
2308 kPa	1043.7 kg/m3
2333 kPa	1043.7 kg/m3
2354.7 kPa	1043.7 kg/m3
2376.6 kPa	1043.7 kg/m3
2398.4 kPa	1043.7 kg/m3
2422.9 kPa	1043.8 kg/m3
2443.3 kPa	1043.9 kg/m3
2464.3 kPa	1043.6 kg/m3
2488.8 kPa	1043.8 kg/m3
2509.4 kPa	1043.8 kg/m3
2530.2 kPa	1043.8 kg/m3
2554.7 kPa	1043.7 kg/m3
2576.2 kPa	1043.9 kg/m3
2597.2 kPa	1043.9 kg/m3
2618.2 kPa	1043.9 kg/m3
2643 kPa	1043.9 kg/m3
2663.8 kPa	1044 kg/m3
2685.1 kPa	1043.9 kg/m3
2711.1 kPa	1044 kg/m3
2732.8 kPa	1044 kg/m3
2754.8 kPa	1044 kg/m3
2781 kPa	1043.9 kg/m3
2802.9 kPa	1044 kg/m3
2824.7 kPa	1044 kg/m3
2874.3 kPa	1044.1 kg/m3
2897.5 kPa	1044 kg/m3
2943.5 kPa	1044.1 kg/m3
2971 kPa	1044.1 kg/m3
2993.1 kPa	1044.1 kg/m3
3014.9 kPa	1044.1 kg/m3
3041.8 kPa	1044.2 kg/m3
3063.6 kPa	1044.2 kg/m3
3085.8 kPa	1044.2 kg/m3
3108.7 kPa	1044.3 kg/m3
3136.3 kPa	1044.2 kg/m3
3159.3 kPa	1044.2 kg/m3
3182.9 kPa	1044.2 kg/m3
3207 kPa	1044.3 kg/m3
3235.1 kPa	1044.3 kg/m3
3258.3 kPa	1044.2 kg/m3
3282.9 kPa	1044.4 kg/m3
3311.7 kPa	1044.3 kg/m3
3336.1 kPa	1044.3 kg/m3
3361.2 kPa	1044.5 kg/m3
3386.4 kPa	1044.3 kg/m3
3416 kPa	1044.5 kg/m3
3440.9 kPa	1044.4 kg/m3
3466.4 kPa	1044.4 kg/m3
3492.4 kPa	1044.4 kg/m3
3523.8 kPa	1044.5 kg/m3
3549.8 kPa	1044.5 kg/m3
3576.6 kPa	1044.5 kg/m3
3603.3 kPa	1044.5 kg/m3
3635.4 kPa	1044.6 kg/m3
3661.7 kPa	1044.6 kg/m3
3688.4 kPa	1044.7 kg/m3
3710.9 kPa	1044.6 kg/m3
3733.8 kPa	1044.6 kg/m3
3756.6 kPa	1044.6 kg/m3
3784.2 kPa	1044.7 kg/m3
3807.4 kPa	1044.6 kg/m3
3831.5 kPa	1044.7 kg/m3
3857.6 kPa	1044.7 kg/m3
3881.3 kPa	1044.7 kg/m3
3909.9 kPa	1044.8 kg/m3
3931.4 kPa	1044.7 kg/m3
3952.7 kPa	1044.7 kg/m3
3974.1 kPa	1044.8 kg/m3
3999.8 kPa	1044.9 kg/m3
4021.6 kPa	1044.7 kg/m3
4043.6 kPa	1044.8 kg/m3
4069.7 kPa	1044.7 kg/m3
4092.1 kPa	1044.9 kg/m3
4114.1 kPa	1044.9 kg/m3
4137.5 kPa	1044.9 kg/m3
4161.7 kPa	1045 kg/m3
4182.5 kPa	1044.9 kg/m3
4206.7 kPa	1045.1 kg/m3
4227.1 kPa	1044.9 kg/m3
4251.9 kPa	1044.9 kg/m3
4272.5 kPa	1044.9 kg/m3
4293.5 kPa	1045.1 kg/m3
4314.4 kPa	1045 kg/m3
4335.5 kPa	1045 kg/m3
4361 kPa	1045.1 kg/m3
4381.9 kPa	1045 kg/m3
4403.9 kPa	1045 kg/m3
4429.5 kPa	1045.1 kg/m3
4451.4 kPa	1045.1 kg/m3
4473.3 kPa	1044.9 kg/m3
4495 kPa	1045.2 kg/m3
4520.9 kPa	1045.2 kg/m3
4542.9 kPa	1045.2 kg/m3
4569.8 kPa	1045.3 kg/m3
4592.6 kPa	1045.1 kg/m3
4616.5 kPa	1045.2 kg/m3
4644.7 kPa	1045.3 kg/m3
4667.4 kPa	1045.2 kg/m3
4686.4 kPa	1045.3 kg/m3
4703.6 kPa	1045.4 kg/m3
4720.4 kPa	1045.3 kg/m3
4741.5 kPa	1045.3 kg/m3
4758.3 kPa	1045.4 kg/m3
4771.9 kPa	1045.4 kg/m3
4786.8 kPa	1045.4 kg/m3
4797.7 kPa	1045.2 kg/m3
4827.1 kPa	1045.4 kg/m3
4830.1 kPa	1045.3 kg/m3
4830.9 kPa	1045.3 kg/m3
4834.9 kPa	1045.4 kg/m3
4837.9 kPa	1045.4 kg/m3
4839.4 kPa	1045.4 kg/m3
4840.5 kPa	1045.3 kg/m3
4841.7 kPa	1045.4 kg/m3
4842.2 kPa	1045.4 kg/m3
4842.7 kPa	1045.4 kg/m3
4842.9 kPa	1045.3 kg/m3
4843.4 kPa	1045.4 kg/m3 and 1045.3 kg/m3
4843.9 kPa	1045.3 kg/m3 and 1045.4 kg/m3
4844.1 kPa	1045.3 kg/m3
4844.4 kPa	1045.4 kg/m3
4865 kPa	1045.3 kg/m3
4897.7 kPa	1045.4 kg/m3
4931.1 kPa	1045.4 kg/m3
4970.1 kPa	1045.4 kg/m3
4994.6 kPa	1045.4 kg/m3
5016.4 kPa	1045.4 kg/m3
5038.9 kPa	1045.5 kg/m3
5061.8 kPa	1045.5 kg/m3
5088.8 kPa	1045.5 kg/m3
5111.4 kPa	1045.4 kg/m3
5139.1 kPa	1045.4 kg/m3
5162.8 kPa	1045.5 kg/m3
5186.5 kPa	1045.5 kg/m3
5210.6 kPa	1045.6 kg/m3
5239.4 kPa	1045.7 kg/m3
5264.7 kPa	1045.6 kg/m3
5290.3 kPa	1045.6 kg/m3
5317.3 kPa	1045.7 kg/m3
5342.9 kPa	1045.5 kg/m3
5367.5 kPa	1045.7 kg/m3
5393.1 kPa	1045.6 kg/m3
5414.2 kPa	1045.7 kg/m3
5436 kPa	1045.7 kg/m3
5462.1 kPa	1045.7 kg/m3
5484.2 kPa	1045.7 kg/m3
5506.7 kPa	1045.7 kg/m3
5533.5 kPa	1045.7 kg/m3
5556 kPa	1045.9 kg/m3
5579 kPa	1045.8 kg/m3
5603.2 kPa	1045.8 kg/m3
5627.4 kPa	1045.9 kg/m3
5651.3 kPa	1045.8 kg/m3
5674.9 kPa	1045.9 kg/m3
5703.6 kPa	1045.9 kg/m3
5728 kPa	1046 kg/m3
5753.1 kPa	1045.9 kg/m3
5783.4 kPa	1046 kg/m3
5808.8 kPa	1046 kg/m3
5831.6 kPa	1045.9 kg/m3
5852.2 kPa	1046 kg/m3
5876.5 kPa	1046.1 kg/m3
5897.6 kPa	1046.1 kg/m3
5918.4 kPa	1046.1 kg/m3
5939.8 kPa	1046.1 kg/m3
5964.7 kPa	1046.1 kg/m3
5986.2 kPa	1046.1 kg/m3
6007.4 kPa	1046.3 kg/m3
6033.9 kPa	1046.1 kg/m3
6056.2 kPa	1046.2 kg/m3
6079 kPa	1046.2 kg/m3
6101.4 kPa	1046.1 kg/m3
6124.1 kPa	1046.2 kg/m3
6142.1 kPa	1046.1 kg/m3
6159.7 kPa	1046.1 kg/m3
6178 kPa	1046.1 kg/m3
6190.3 kPa	1046.2 kg/m3
6202.4 kPa	1046.2 kg/m3
6213.1 kPa	1046.2 kg/m3
6221.2 kPa	1046.3 kg/m3
6226.4 kPa	1046.2 kg/m3
6231.1 kPa	1046.2 kg/m3
6237.5 kPa	1046.3 kg/m3
6242.1 kPa	1046.3 kg/m3
6247.5 kPa	1046.2 kg/m3
6252.7 kPa	1046.3 kg/m3
6258.9 kPa	1046.2 kg/m3
6263.7 kPa	1046.2 kg/m3
6268.7 kPa	1046.4 kg/m3
6273.9 kPa	1046.3 kg/m3
6280.5 kPa	1046.3 kg/m3
6285.5 kPa	1046.3 kg/m3
6290.3 kPa	1046.4 kg/m3
6296 kPa	1046.2 kg/m3
6300.7 kPa	1046.2 kg/m3
6304.9 kPa	1046.2 kg/m3
6309.5 kPa	1046.2 kg/m3
6312.6 kPa	1046.3 kg/m3
6314.7 kPa	1046.4 kg/m3
6316.4 kPa	1046.2 kg/m3
6325.3 kPa	1046.3 kg/m3
6353.3 kPa	1046.3 kg/m3
6384.4 kPa	1046.4 kg/m3
6414.9 kPa	1046.3 kg/m3
6445.5 kPa	1046.5 kg/m3
6469.5 kPa	1046.4 kg/m3
6493.9 kPa	1046.3 kg/m3
6597.9 kPa	1046.5 kg/m3
6628 kPa	1046.5 kg/m3
6653.7 kPa	1046.6 kg/m3
6679.6 kPa	1046.5 kg/m3
6706.4 kPa	1046.5 kg/m3
6732.8 kPa	1046.5 kg/m3
6763.9 kPa	1046.7 kg/m3
